From ChEMBL document CHEMBL1152962 (Bioorg Med Chem, 2009)

Columns and labels:
[1] = biological target: T1, Tyrosinase (Agaricus bisporus, UniProt O42713)
T1 sequence (O42713 whole entry): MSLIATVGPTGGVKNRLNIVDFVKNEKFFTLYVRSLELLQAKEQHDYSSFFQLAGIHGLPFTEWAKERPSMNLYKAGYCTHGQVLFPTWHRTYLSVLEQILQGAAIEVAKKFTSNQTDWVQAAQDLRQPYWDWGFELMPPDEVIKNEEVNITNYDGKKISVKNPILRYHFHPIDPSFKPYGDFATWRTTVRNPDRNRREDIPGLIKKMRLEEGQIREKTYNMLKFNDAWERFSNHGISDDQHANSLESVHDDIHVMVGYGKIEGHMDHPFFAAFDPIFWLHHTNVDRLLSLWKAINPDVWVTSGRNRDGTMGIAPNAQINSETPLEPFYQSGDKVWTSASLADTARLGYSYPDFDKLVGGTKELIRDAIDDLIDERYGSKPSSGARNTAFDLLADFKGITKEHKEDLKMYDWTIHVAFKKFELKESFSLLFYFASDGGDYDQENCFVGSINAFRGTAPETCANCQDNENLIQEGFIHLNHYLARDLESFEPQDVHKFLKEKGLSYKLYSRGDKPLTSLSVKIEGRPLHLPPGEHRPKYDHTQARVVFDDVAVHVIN
Description: Inhibition of mushroom tyrosinase activity after 30 mins by spectrophotometry

[2] = tested on: Radical scavenging activity
Description: Antioxidant activity assessed as DPPH radical scavenging activity incubated at 40 degC in dark after 30 mins

[3] = biological target: T1, Tyrosinase; remark: listed apart in the source
Description: Inhibition of mushroom tyrosinase activity after 150 mins by spectrophotometry

[4] = biological target: T1, Tyrosinase; remark: listed apart in the source
Description: Inhibition of mushroom tyrosinase activity after 90 mins by spectrophotometry

[5] = Ratio of Trolox IC50 to compound IC50 for DPPH radical scavenging activity
[6] = Ratio of Trolox IC50 to compound IC50 for ABTS radical scavenging activity
[7] = Ratio of Trolox IC50 to compound IC50 for FeCl2-induced lipid peroxidation; assay type: physicochemical

SMILES | IC50 [1] [µM] | IC50 [2] [µM] | IC50 [3] [µM] | IC50 [4] [µM] | Ratio IC50 [5] | Ratio IC50 [6] | Ratio IC50 [7]
O=C(Cc1ccc(O)cc1)c1ccc(O)cc1O | 178 | 25.2 | 172 | 136 |  |  | 
COc1ccc(CC(=O)c2ccc(O)c(O)c2O)cc1 | > 300 | 21.6 | 212 | 203 |  |  | 
O=C(Cc1ccccc1)c1c(O)cc(O)cc1O |  | 12.2 |  |  |  |  | 
O=C1O[C@H]([C@@H](O)CO)C(O)=C1O [ASCORBIC ACID] |  | 73.7 |  |  |  |  | 
COc1ccc(CC(=O)c2cc(O)c(O)cc2O)cc1 | 84.4 | 21.5 | 197 | 144 |  |  | 
COc1ccc(CC(=O)c2ccc(O)cc2O)cc1OC | 112 | 35.1 | 240 | 209 |  |  | 
COc1ccc(CC(=O)c2ccc(O)c(O)c2)cc1 | > 300 | 75.9 | 178 | 168 |  |  | 
COc1cc(O)c(C(=O)Cc2ccccc2)cc1O |  | 20.3 |  |  |  |  | 
O=C(Cc1ccc(O)cc1)c1c(O)cc(O)cc1O | > 300 | 22.8 | 261 | > 300 |  |  | 
COc1ccc(CC(=O)c2ccc(O)cc2O)cc1 [ONONETIN] | 78.9 | 57.4 | 181 | 160 |  |  | 
COc1ccc(C(=O)Cc2ccc(O)cc2)c(O)c1O | 43.4 | 25.7 | 46.1 | 43.1 |  |  | 
COc1ccc(CC(=O)c2cc(O)c(C)c(C)c2O)cc1 |  | 21.9 |  |  |  |  | 

Stronger by IC50 [2], values ahead:

IC50 [1] [µM] | IC50 [2] [µM] | IC50 [3] [µM] | IC50 [4] [µM] | SMILES | Ratio IC50 [5] | Ratio IC50 [6] | Ratio IC50 [7]
 | 0.69 |  |  | O=C(Cc1ccc(O)cc1)c1cc(O)c(O)cc1O | 13 |  | 
 | 9.2 |  |  | Cc1c(C)c2c(c(C)c1O)CCC(C)(C(=O)O)O2 (stereo not given) [TROLOX] |  |  | 
> 300 | 5.69 | > 500 | > 300 | O=C(Cc1ccc(O)cc1)c1ccc(O)c(O)c1O |  | 10 | 
71 | 10.8 | 230 | 214 | COc1ccc(CC(=O)c2c(O)cc(O)cc2O)cc1 |  |  | 
229 | 4.34 | 140 | 132 | COc1ccc(CC(=O)c2ccc(O)c(O)c2O)cc1OC |  |  | 5
 | 2.53 |  |  | COc1ccc(CC(=O)c2ccc(O)c(O)c2)cc1OC |  |  | 
 | 1.35 |  |  | COc1ccc(CC(=O)c2c(O)cc(O)cc2O)cc1OC |  |  | 
